In paper PMC12223841, “Compounds Isolated from Paepalanthus spp. (Eriocaulaceae) and Their Evaluation in Antimicrobial, Cytotoxic, and Antiviral Assays” (ACS Omega, 2025):
Values after ≈ are worked out from the molar mass of the structure shown.

Legend:
[1] = tested on: HCT-116 (human colon cancer); assay: MTT growth-inhibition assay, HCT-116; assay type: cell-based; conditions: 72 h; for inhibition at 50 µM: read-out: Inhibition percentage (growth), HCT 116
[2] = tested on: Staphylococcus aureus (NEWP0023); assay: Broth microdilution with TTC, S. aureus; assay type: cell-based; conditions: 24 h, 36 °C
in vitro = conditions: hamster
[3] = tested on: MCF-7 (human breast cancer); assay: MTT growth-inhibition assay, MCF-7; assay type: cell-based; conditions: 72 h; for inhibition at 50 µM: MCF7, 50 μM, read-out: Inhibition percentage (growth), MCF-7
[4] = tested on: Escherichia coli (NEWP0022); assay: Broth microdilution with TTC, E. coli; assay type: cell-based; conditions: 24 h, 36 °C

Structure (SMILES) | MIC [2] [µg/mL] | MIC [4] [µg/mL] | IC50 ([1]; positive control, 95% confidence interval in brackets) [nM] | IC50 ([3]; MCF7, positive control, 95% confidence interval in brackets) [nM] | inhibition at 50 µM [1] [%] | viability at 10 µM (in vitro) [%] | inhibition at 50 µM [3] [%]
COc1c(O)cc2oc(-c3ccc(O)cc3)c(OC3OC(COC(=O)C=Cc4ccc(O)cc4)C(O)C(O)C3O)c(=O)c2c1O [Compound 4, 6-Methoxykaempferol-3-O-β-D-6″-(p-coumaroyl)-glycopyranoside] | ≥ 500 | ≥ 250 | – | – | 11.5 | 100 | 3.45
COc1c(O)cc2oc(-c3ccc(O)cc3)c(O)c(=O)c2c1O [Compound 1, 6-Methoxykaempferol] | 250 (≈ 790 µM) | ≥ 250 | – | – | 29.2 | – | 19.2
COc1c(O)cc2oc(-c3ccc(O)cc3)c(O[C@@H]3O[C@H](CO)[C@@H](O)[C@H](O)[C@H]3O)c(=O)c2c1O [Compound 5, 6-Methoxykaempferol-3-O-β-glucopyranoside] | ≥ 500 | ≥ 250 | – | – | – | – | –

The next lines start with results.

MIC [2] [µg/mL] | MIC [4] [µg/mL] | IC50 ([1]; positive control, 95% confidence interval in brackets) [nM] | IC50 ([3]; MCF7, positive control, 95% confidence interval in brackets) [nM] | Structure (SMILES) | inhibition at 50 µM [1] [%] | viability at 10 µM (in vitro) [%] | inhibition at 50 µM [3] [%]
– | – | 180 | 1160 | COc1cccc2c1C(=O)c1c(O)c3c(c(O)c1C2=O)C[C@@](O)(C(=O)CO)C[C@@H]3O[C@H]1C[C@H](N)[C@H](O)[C@H](C)O1 [Doxorubicin, doxorubicin, reference compound] | – | – | –
≤ 0.5 | ≤ 0.5 | – | – | CNC(C)C1CCC(N)C(OC2C(N)CC(N)C(OC3OCC(C)(O)C(NC)C3O)C2O)O1 (stereo not drawn) [gentamicin, reference compound] | – | – | –
